The record followed here is ChEMBL document CHEMBL5131455 (Bioorg Med Chem Lett, 2022).

In brackets after ≈: the same amount, converted by molar mass.

A word on the Papp: it is a coefficient for how fast a substance crosses the barrier. Broadly, the solubility (thermodynamic) is solubility found after equilibrating the solid with the medium. By efflux ratio is commonly meant a quotient of directional permeabilities that is used to spot active efflux. A word on the Tmax: it is the time from dosing to the highest level. For orientation: AC50 means the concentration giving half of the maximal activity seen. By GI50 is commonly meant the concentration giving 50% growth inhibition. A word on the IC50: it is the midpoint of a concentration-inhibition curve. A low value points to greater potency in that assay. The term half-life denotes how long it takes for the measured level to halve. The low end stands for rapid decline, the high end for slow decline. As usually defined, the Papp A→B is how fast a substance crosses the layer from the apical side. For orientation: inhibition means how much of the control response was suppressed. Usually clearance stands for the rate of elimination divided by the concentration. Higher therefore signals efficient removal. Broadly, the Papp B→A is the apparent permeability from the basolateral to the apical side of a cell layer.

Data set [1] is described as follows: AUC (0 to 8 hrs) in rat plasma at 30 mg/kg, po relative to radioactivity of 14-C AUC. The format is ADME, organism-based. To be noted: in vivo.
Data set [2] in a line: Apparent permeability in MDCK cells. The format is ADME, cell-based, Canis lupus familiaris. The settings on record: dog, MDCK-MDR1.
Data set [3] is described as follows: Solubility of the compound in pH 1 0.1N HCl buffer incubated up to 72 hrs by shake flask method. The format is physicochemical.
The nature of data set [4]: Drug uptake in male rat central nervous system at 30 mg/kg, po. The format is ADME, organism-based. The settings on record: in vivo, BLD = below limit of detection.
Data set [5] in a line: Solubility of the compound in chloride free pH 6.8 phosphate buffer incubated up to 72 hrs by shake flask method. The format is physicochemical.
Data set [6] in a line: AUC (0 to 8 hrs) in human plasma at 80 mg, po qd administered as water suspension by HPLC analysis relative to radioactivity of 14-C AUC. The settings on record: in vivo. It counts as ADME, organism-based.
Data set [7] is described as follows: Drug uptake in female rat central nervous system at 30 mg/kg, po. It counts as ADME, organism-based. To be noted: in vivo.
Data set [8] is described as follows: AUC in rat plasma at 30 mg/kg, po in presence of [14-C]asciminib relative to radioactivity of [14-C] AUC. It counts as ADME, organism-based. The settings on record: in vivo.
The nature of data set [9]: Efflux ratio of apparent permeability across basolateral to apical side over apical to basolateral side in human Caco2 cells. The format is ADME, cell-based. The settings on record: Caco-2. (Passage across Caco-2 layers is used to estimate intestinal permeability.)
Data set [10] is described as follows: Tmax in C57BL/6 mouse at 30 mg/kg, ip. It counts as ADME, organism-based. To be noted: in vivo.
Data set [11] is described as follows: Ratio of drug level in C57BL/6 mouse blood to brain at 1 mg/kg, iv measured after 5 mins. The settings on record: in vivo. The format is ADME, organism-based.
Data set [12] is described as follows: Intrinsic clearance in mouse liver microsomes. The format is ADME, Microsome. The settings on record: read-out: CLH.
Data set [13] in a line: Tmax in C57BL/6 mouse at 30 mg/kg, po. The settings on record: in vivo. The format is ADME, organism-based.
Data set [14] addresses T1, Mu-type opioid receptor (Homo sapiens, UniProt P35372). The data set is described as follows: Displacement of [3H]morphine binding to recombinant human full-length MOR expressed in CHO-K1 cells measured after 60 mins by scintillation counting analysis. It counts as cell-based.
The test system of data set [15] is BaF3. Nature of the data set: Antiproliferative activity against mouse BaF3 cells expressing BCR-ABL by ATP-luminescence assay. The format is functional, cell-based.
The nature of data set [16]: Antiproliferative activity against human SNU-213 cells measured after 72 hrs by celltiter-glo luminescent cell viability assay. The format is functional, cell-based. (In general: Cellular ATP, detected with luciferase, serves as a proxy for viable cell number.)
The nature of data set [17]: Drug level in C57BL/6 mouse brain at 30 mg/kg, ip measured at 4 hrs. To be noted: read-out: Drug uptake. The format is ADME, organism-based.
A short description of data set [18]: Intrinsic clearance in human liver microsomes. To be noted: read-out: CLH. The format is ADME, Microsome. A general note: Microsomes from liver hold many membrane-bound enzymes, among them those of drug oxidation.
Data set [19] can be described thus: Ratio of drug level in C57BL/6 mouse blood to brain at 10 mg/kg, ip measured at 4 hrs. It counts as ADME, organism-based. To be noted: in vivo.
A short description of data set [20]: Intrinsic clearance in dog liver microsomes. It counts as ADME, Canis lupus familiaris, Microsome. The settings on record: read-out: CLH.
The nature of data set [21]: Antiproliferative activity against human Fu97 cells measured after 72 hrs by celltiter-glo luminescent cell viability assay. The format is functional, cell-based.
Data set [22] in a line: Dose normalized AUC (infinity) in C57BL/6 mouse blood at 30 mg/kg, ip. It counts as ADME, organism-based. The settings on record: in vivo.
Data set [23] is described as follows: Antiproliferative activity against human CMK-86 cells measured after 72 hrs by celltiter-glo luminescent cell viability assay. The format is functional, cell-based.
The nature of data set [24]: Dose normalized AUC (infinity) in C57BL/6 mouse brain at 30 mg/kg, ip. The format is ADME, organism-based. To be noted: in vivo.
Data set [25] in a line: Dose normalized Cmax in C57BL/6 mouse at 30 mg/kg, ip. The format is ADME, organism-based. The settings on record: in vivo.
A short description of data set [26]: Half life in C57BL/6 mouse at 1 mg/kg, iv. The format is ADME, organism-based. To be noted: in vivo.
Data set [27] can be described thus: Dose normalized AUC (infinity) in C57BL/6 mouse at 1 mg/kg, iv. The format is ADME, organism-based. To be noted: in vivo.
The nature of data set [28]: Dose normalized AUC (infinity) in C57BL/6 mouse brain at 10 mg/kg, ip measured up to 4 hrs. It counts as ADME, organism-based. The settings on record: in vivo.
Data set [29] in a line: Ratio of drug level in C57BL/6 mouse blood to brain at 30 mg/kg, ip measured at 4 hrs. It counts as ADME, organism-based. To be noted: in vivo.
Data set [30] relates to MDR1. The data set is described as follows: Efflux ratio of apparent permeability across basolateral to apical side over apical to basolateral side in MDCK-MDR1 cells. The format is ADME, cell-based, Canis lupus familiaris. The settings on record: dog.
The nature of data set [31]: Unbound brain to plasma concentration ratio in C57BL/6 mouse brain at 30 mg/kg, ip. The settings on record: brain and plasma, read-out: K(p,uu,brain). It counts as ADME, organism-based.
Data set [32] is described as follows: Apparent permeability across apical to basolateral side in human Caco-2 cells. It counts as ADME, cell-based.
Data set [33] concerns the target hERG (KCNH2) (Homo sapiens, UniProt Q12809). The data set is described as follows: Displacement of [3H]dofetilide from human ERG expressed in HEK293 cells at 30 uM measured after 45 mins by topcount scintillation counting method relative to control. The format is toxicity, cell-based. The settings on record: HEK293 cells that express hERG, probe [3H]dofetilide.

The nature of data set [34]: Intrinsic clearance in rat liver microsomes. The format is ADME, Microsome. The settings on record: read-out: CLH.
Data set [35] can be described thus: Antiproliferative activity against human KBM-7 cells measured after 72 hrs by celltiter-glo luminescent cell viability assay. It counts as functional, cell-based.
A short description of data set [36]: Dose normalized Cmax in C57BL/6 mouse at 30 mg/kg, po. The format is ADME, organism-based. The settings on record: in vivo.
Data set [37] is described as follows: Clearance in C57BL/6 mouse at 1 mg/kg, iv. The format is ADME, organism-based. The settings on record: in vivo.
A short description of data set [38]: Volume of distribution at steady state in C57BL/6 mouse at 1 mg/kg, iv. The format is ADME, organism-based. To be noted: in vivo, read-out: Vdss.
Data set [39] is described as follows: Apparent permeability across basolateral to apical side in human Caco-2 cells. The format is ADME, cell-based.
Data set [40] has as its target Tyrosine-protein kinase ABL1 (Homo sapiens, UniProt P00519). The data set is described as follows: Inhibition of transphosphorylation of ABL1 SH1-3 domain (64 to 515 residues) (unknown origin) expressed in Escherichia coli using FITC-Ahx-EAIYAAPFAKKK-NH2) as substrate measured after 60 mins by caliper method.
Data set [41] in a line: Ratio of drug level in C57BL/6 mouse brain at 30 mg/kg, ip to IC50 for antiproliferative activity against mouse BaF3 cells expressing BCR-ABL by ATP-luminescence assay. It counts as organism-based. The settings on record: in vivo.
Data set [42] deals with Voltage-gated inwardly rectifying potassium channel KCNH2 (Homo sapiens, UniProt Q12809). The data set is described as follows: Displacement of [3H]dofetilide from human ERG expressed in HEK293 cells measured after 45 mins by topcount scintillation counting method. The format is toxicity, cell-based.
The target in data set [43] is T1, Mu-type opioid receptor. Nature of the data set: Displacement of [3H]morphine binding to recombinant human full-length MOR expressed in CHO-K1 cells at 30 uM measured after 60 mins by scintillation counting analysis relative to control. It counts as cell-based.
The nature of data set [44]: Dose normalized AUC (infinity) in C57BL/6 mouse blood at 30 mg/kg, po. To be noted: in vivo. The format is ADME, organism-based.

T1 sequence (P35372 whole entry): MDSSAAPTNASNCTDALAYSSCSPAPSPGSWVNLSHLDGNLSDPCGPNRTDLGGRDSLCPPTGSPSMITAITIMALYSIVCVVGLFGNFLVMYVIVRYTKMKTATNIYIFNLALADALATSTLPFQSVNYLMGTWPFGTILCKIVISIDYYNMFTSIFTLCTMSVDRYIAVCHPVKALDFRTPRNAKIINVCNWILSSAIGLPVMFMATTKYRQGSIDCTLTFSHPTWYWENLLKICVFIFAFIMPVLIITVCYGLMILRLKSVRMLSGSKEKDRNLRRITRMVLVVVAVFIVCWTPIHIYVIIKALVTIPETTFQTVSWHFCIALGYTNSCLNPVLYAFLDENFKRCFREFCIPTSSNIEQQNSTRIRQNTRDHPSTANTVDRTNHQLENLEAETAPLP
Chain of hERG (KCNH2) (Q12809 whole entry): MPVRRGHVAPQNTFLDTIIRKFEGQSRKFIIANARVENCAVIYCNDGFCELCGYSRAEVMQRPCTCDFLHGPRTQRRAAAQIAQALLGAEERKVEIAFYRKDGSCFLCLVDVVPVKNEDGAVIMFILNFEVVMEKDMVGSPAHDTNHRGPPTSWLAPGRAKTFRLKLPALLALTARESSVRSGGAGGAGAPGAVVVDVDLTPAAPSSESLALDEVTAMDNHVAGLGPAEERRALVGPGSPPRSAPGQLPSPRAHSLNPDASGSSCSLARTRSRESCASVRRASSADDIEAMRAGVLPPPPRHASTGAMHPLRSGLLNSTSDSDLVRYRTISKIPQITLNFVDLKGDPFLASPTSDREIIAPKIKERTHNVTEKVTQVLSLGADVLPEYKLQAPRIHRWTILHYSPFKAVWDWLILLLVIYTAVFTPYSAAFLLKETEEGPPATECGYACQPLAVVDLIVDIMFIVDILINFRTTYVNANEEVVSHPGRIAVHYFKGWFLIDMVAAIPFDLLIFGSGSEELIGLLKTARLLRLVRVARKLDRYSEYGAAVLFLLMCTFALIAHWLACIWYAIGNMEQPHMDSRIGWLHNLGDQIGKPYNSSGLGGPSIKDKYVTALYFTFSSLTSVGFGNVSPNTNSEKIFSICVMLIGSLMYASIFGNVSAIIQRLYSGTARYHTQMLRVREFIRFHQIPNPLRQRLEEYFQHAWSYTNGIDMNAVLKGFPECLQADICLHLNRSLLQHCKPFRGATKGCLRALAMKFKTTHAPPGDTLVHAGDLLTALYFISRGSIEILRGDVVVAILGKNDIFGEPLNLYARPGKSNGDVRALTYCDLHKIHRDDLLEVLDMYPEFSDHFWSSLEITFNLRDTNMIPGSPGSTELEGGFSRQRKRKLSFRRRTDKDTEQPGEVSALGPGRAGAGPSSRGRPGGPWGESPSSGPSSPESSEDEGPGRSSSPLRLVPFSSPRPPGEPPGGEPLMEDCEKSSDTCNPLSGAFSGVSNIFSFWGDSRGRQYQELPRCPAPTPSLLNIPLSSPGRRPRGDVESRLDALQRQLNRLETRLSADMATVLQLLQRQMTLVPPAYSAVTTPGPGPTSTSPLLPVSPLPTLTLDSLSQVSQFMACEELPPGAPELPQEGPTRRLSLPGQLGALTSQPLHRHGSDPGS
Chain of Voltage-gated inwardly rectifying potassium channel KCNH2 (Q12809 whole entry): as above
Chain of Tyrosine-protein kinase ABL1 (P00519 whole entry, the tested form may be a part): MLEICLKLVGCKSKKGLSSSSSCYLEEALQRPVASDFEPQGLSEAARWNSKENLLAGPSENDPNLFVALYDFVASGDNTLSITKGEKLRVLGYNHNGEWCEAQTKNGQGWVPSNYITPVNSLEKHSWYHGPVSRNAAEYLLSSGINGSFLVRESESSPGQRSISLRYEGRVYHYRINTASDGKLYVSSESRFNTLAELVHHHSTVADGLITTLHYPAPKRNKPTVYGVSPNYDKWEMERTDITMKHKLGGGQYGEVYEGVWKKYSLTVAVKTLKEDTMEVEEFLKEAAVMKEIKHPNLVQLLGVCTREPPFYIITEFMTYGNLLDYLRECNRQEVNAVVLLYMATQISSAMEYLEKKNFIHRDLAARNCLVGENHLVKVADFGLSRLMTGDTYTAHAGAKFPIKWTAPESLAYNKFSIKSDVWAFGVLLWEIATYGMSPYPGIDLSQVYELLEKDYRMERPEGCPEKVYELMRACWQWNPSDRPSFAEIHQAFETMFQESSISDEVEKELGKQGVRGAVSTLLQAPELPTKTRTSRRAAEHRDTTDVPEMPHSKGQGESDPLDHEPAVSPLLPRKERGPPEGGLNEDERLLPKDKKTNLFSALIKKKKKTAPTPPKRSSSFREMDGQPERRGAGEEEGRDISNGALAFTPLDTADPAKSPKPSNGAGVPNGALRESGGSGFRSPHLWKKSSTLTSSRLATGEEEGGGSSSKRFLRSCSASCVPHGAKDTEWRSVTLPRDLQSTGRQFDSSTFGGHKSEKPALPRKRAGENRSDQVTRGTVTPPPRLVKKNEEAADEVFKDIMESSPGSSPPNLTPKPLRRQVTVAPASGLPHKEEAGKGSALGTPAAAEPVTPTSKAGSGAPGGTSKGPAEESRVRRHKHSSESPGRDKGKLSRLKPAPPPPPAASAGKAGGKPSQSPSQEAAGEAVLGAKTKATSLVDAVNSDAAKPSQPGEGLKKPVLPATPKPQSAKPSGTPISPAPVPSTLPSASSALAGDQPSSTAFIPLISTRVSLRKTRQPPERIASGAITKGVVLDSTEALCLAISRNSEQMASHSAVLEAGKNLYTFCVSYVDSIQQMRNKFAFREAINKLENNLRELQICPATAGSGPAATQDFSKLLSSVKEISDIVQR

Turning to `O=C(Nc1ccc(OC(F)(F)Cl)cc1)c1cnc(N2CC[C@@H](O)C2)c(-c2ccn[nH]2)c1` [ASCIMINIB], the Drug uptake was 86% in data set [1], “Bld” in data set [4], 92.7% in data set [6] and “Active” in [7]. The Papp in [2] was determined as 21.1 ×10⁻⁶ cm/s. The thermodynamic solubility at 72 h was over 1500 µg/mL in data set [3] and 4 µg/mL (≈ 8.89 µM) in data set [5].
For the compound `O=C(Nc1ccc(OC(F)(F)Cl)cc1)c1cnc(NCCC(O)CO)c(-c2ccn[nH]2)c1` (stereo not drawn), the Drug uptake in data set [8] was found to be 0.39%.
`O=C(Nc1ccc(OC(F)(F)F)cc1)c1cncc(-c2cccnc2)c1`: the efflux ratio in data set [9] amounted to 0.41; in [30], 1.03. Besides, the Tmax in data set [10] turned out to be 1.8 h; in [13] it was 1 h. Moreover, the Ratio was found to be 3.29 in data set [11], 2.32 in [19], 2.65 in data set [29] and 465 in data set [41]. Also, the CLint scaled in [12] is 31 mL/min/kg; in data set [18], 16 mL/min/kg; in [20] it was 30 mL/min/kg; in [34], 56 mL/min/kg. In addition, the AC50 in [14] was 9.78 µM; in [42], 2.8 µM. For the same compound, halving of growth in data set [15] (GI50) required 0.069 µM. Also, the IC50 was 0.075 µM in data set [15]; 25 µM in data set [16] (Homo sapiens, SNU-213, 72 h); over 30 µM in [21] (Homo sapiens, Fu97, 72 h); 1.6 µM in data set [23] (Homo sapiens, CMK-86, 72 h); 0.197 µM in data set [35] (Homo sapiens, KBM-7, 72 h); 0.033 µM in [40]. Besides, the “%max” value in data set [16] (time 72 hrs) turned out to be 62%; in [21] (time 72 hrs), 55%; in data set [23] (time 72 hrs), 62%; in data set [35] (time 72 hrs) it was 98%. Also, the concentration at 4 h in [17] stood at 34.9 µM. For the same compound, the Papp in data set [2] was found to be 24.5 ×10⁻⁶ cm/s. Also, the values for the thermodynamic solubility at 72 h in data set [3] and in data set [5] were over 1500 µg/mL and 3 µg/mL (≈ 8.35 µM), respectively. In addition, the AUC/dose in data set [22] amounted to 6672 nM·h; in [24], 27926 nM·h; in data set [27], 2875 nM·h; in [28] it was 15720 nM·h; in data set [44], 5139 nM·h. Besides, the Cmax/dose in data set [25] was found to be 0.643 µM; in data set [36], 0.629 µM. In [26], this compound had a half-life of 0.9 h. For the same compound, the Kp uu in data set [31] was 0.91. In addition, the Papp A→B in data set [32] stood at 27.1 ×10⁻⁶ cm/s. The compound also yielded an inhibition at 0.75 h, 30 µM in data set [33] of over 50%. For the same compound, the clearance in data set [37] was 17 mL/min/kg. Further, the Vd in [38] was 1.2 L/kg. Besides, in data set [39], the Papp B→A turned out to be 11.1 ×10⁻⁶ cm/s. In addition, the inhibition in data set [43] is over 50%.
Regarding `O=C1CCN(c2ncc(C(=O)Nc3ccc(OC(F)(F)Cl)cc3)cc2-c2ccn[nH]2)C1`, the Drug uptake in data set [8] stood at 1.88%.
